Data: patent publication US10086039B2, “Lamin A, an activator of longevity/anti-aging SIRT1 protein” (THE UNIVERSITY OF HONG KONG, priority 2012, dated 2018)

What was measured:
[1] = molecular target: T1, SIRT1 binding to prelamin A (Mus musculus, UniProt Q923E4); test: Prelamin A pull-down by anti-SIRT1 immunoprecipitates in BMSCs; type: cell-based; settings: resveratrol 2 μM
T1 construct: endogenous in cells; host or cells: mouse bone marrow stromal cells (Zmpste24-/-)
T1 sequence (Q923E4 2-737 limits assumed): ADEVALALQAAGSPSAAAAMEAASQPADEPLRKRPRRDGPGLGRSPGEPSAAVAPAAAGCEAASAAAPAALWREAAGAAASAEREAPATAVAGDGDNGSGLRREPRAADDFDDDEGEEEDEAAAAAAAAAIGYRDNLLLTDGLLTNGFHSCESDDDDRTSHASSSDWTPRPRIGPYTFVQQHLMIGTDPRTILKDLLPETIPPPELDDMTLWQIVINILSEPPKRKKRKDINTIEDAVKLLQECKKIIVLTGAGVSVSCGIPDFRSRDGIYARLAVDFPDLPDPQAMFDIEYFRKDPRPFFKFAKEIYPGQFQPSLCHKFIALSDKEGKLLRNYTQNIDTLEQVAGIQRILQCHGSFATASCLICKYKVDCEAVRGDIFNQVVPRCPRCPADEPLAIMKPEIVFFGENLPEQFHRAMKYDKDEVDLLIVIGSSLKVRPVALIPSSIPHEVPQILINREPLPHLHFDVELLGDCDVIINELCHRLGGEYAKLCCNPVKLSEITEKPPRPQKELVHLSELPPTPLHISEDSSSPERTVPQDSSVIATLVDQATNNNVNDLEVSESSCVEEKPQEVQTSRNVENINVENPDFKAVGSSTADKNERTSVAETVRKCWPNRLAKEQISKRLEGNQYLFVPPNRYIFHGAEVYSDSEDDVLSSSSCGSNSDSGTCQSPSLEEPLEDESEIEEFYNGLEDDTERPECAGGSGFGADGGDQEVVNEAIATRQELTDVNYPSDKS
T1 sequence (P48678 1-662 partner limits assumed): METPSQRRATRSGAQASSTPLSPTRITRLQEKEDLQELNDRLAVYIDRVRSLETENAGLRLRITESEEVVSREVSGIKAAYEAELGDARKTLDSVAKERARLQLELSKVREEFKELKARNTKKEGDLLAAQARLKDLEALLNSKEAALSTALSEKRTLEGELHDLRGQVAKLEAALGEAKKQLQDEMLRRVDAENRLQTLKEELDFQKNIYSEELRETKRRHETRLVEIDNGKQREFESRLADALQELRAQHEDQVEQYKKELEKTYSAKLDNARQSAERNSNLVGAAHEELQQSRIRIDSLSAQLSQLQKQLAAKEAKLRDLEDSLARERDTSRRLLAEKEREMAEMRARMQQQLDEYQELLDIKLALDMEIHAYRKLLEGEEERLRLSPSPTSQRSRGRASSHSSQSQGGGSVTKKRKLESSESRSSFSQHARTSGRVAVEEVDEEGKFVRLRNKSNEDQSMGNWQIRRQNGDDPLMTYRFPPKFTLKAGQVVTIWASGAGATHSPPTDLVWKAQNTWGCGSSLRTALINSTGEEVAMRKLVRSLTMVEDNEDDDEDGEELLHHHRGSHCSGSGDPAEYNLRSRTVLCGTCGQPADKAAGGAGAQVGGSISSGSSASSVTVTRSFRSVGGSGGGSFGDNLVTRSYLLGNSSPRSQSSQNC
Procedure: (FIG. 4A) Resveratrol (10 μM) increased colony-forming capacity of Zmpste24^−/− BMSCs. Colony-forming assay was performed on freshly isolated bone marrow cells in 10 cm dishes in the presence and absence of resveratrol. (FIG. 4B) Colony number counting. […] Data represent mean±SEM, n=4. *P<0.05, RSV Vs Vehicle. (FIG. 4C) Left, level of prelamin A pull down by anti SIRT1 immunoprecipitates in BMSCs treated or untreated with resveratrol (2 μM) was determined by Immunoblotting; right, level of acetylated Foxo3a in resveratrol was assessed by Immunoblotting. (FIG. 4D) Levels of catalase and Gadd45α in SIRT1 or scramble siRNA treated Zmpste24^−/− BMSCs in the presence or absence of resveratrol (10 μM) determined by Western blotting. (FIG. 4E) Colony-forming capacity of Zmpste24^−/− BMSCs by SIRT1 or scramble knocking down in the presence or absence of resveratrol. […] Colony forming assay was done on freshly isolated cells in 6-well plates. (FIG. 4F) Quantification of (FIG. 4E). […] (FIG. 4gG Levels of H3K9ac and IR-induced-H2AX with or without ectopic SIRT1 in wild-type and Zmpste24 null BMSCs were assessed by Western blotting. (FIG. 4H) Ectopic SIRT1 increased the colony-forming capacity of Zmpste24^−/− and wild-type BMSCs. Colony-forming assay was performed on freshly isolated cells in 6 cm dishes. (FIG. 4I) Quantification of (FIG. 4H). Data represent mean±SEM, n=5. *P<0.05, SIRT1 Vs Mock. […]

Gadd45α and catalase = Gadd45α and catalase expression in Zmpste24−/− BMSCs (Western blotting); type: cell-based, mouse
Procedure: (FIG. 4A) Resveratrol (10 μM) increased colony-forming capacity of Zmpste24^−/− BMSCs. Colony-forming assay was performed on freshly isolated bone marrow cells in 10 cm dishes in the presence and absence of resveratrol. (FIG. 4B) Colony number counting. […] Data represent mean±SEM, n=4. *P<0.05, RSV Vs Vehicle. (FIG. 4C) Left, level of prelamin A pull down by anti SIRT1 immunoprecipitates in BMSCs treated or untreated with resveratrol (2 μM) was determined by Immunoblotting; right, level of acetylated Foxo3a in resveratrol was assessed by Immunoblotting. (FIG. 4D) Levels of catalase and Gadd45α in SIRT1 or scramble siRNA treated Zmpste24^−/− BMSCs in the presence or absence of resveratrol (10 μM) determined by Western blotting. […] (FIG. 4F) Quantification of (FIG. 4E). […] (FIG. 4gG Levels of H3K9ac and IR-induced-H2AX with or without ectopic SIRT1 in wild-type and Zmpste24 null BMSCs were assessed by Western blotting. (FIG. 4H) Ectopic SIRT1 increased the colony-forming capacity of Zmpste24^−/− and wild-type BMSCs. Colony-forming assay was performed on freshly isolated cells in 6 cm dishes. (FIG. 4I) Quantification of (FIG. 4H). Data represent mean±SEM, n=5. *P<0.05, SIRT1 Vs Mock.
Western blotting was performed as described previously (Liu et al., 2005). Relative band intensity was measured by IMAGE J® and normalized to corresponding wild-type or untreated controls as indicated.

Zmpste24−/− MEFs = test: SA-β-galactosidase senescence assay in MEFs; type: cell-based, mouse; settings: resveratrol-treated vs saline-treated
Procedure: SA-β-galactosidase assay was performed using a Cellular Senescence Assay Kit (Chemicon International, CA, USA), following the manufacturer's instructions. For MEFs, resveratrol was supplemented in the complete medium at passage 4 and SA-β-galactosidase assay was performed at passage 6. To quantify SA-β-galactosidase staining, the blue-dyed precipitate was extracted with 100 μl DMSO and the absorbance at 415 nm was recorded.

Zmpste24−/− mice = test: Micro-CT of trabecular bone and bone mineral density in Zmpste24−/− mice; type: in vivo, mouse; settings: resveratrol 20 μg/ml in drinking water, 4 months
Procedure: Zmpste24^−/− mice have been described previously (Pendas et al., 2002). Mouse experimentation was performed in accordance with the guidelines of the Committee on the Use of Live Animals in Teaching and Research (CULATR) at the University of Hong Kong. New-born Zmpste24^−/− mice and wild-type controls were fed with resveratrol (20 μg/ml) or N-acetyl Cysteine (1 mg/ml) in drinking water. The survival of resveratrol-treated, NAC-treated, or vehicle-treated Zmpste24^−/− mice was recorded and their body weight was monitored weekly. The trabecular bone organization and bone mineral density were determined by micro-CT. The survival rate was analyzed by Kaplan-Meier method and statistical comparison was performed by Log-rank (Mantel-Cox) Test.

What does the source list for `Oc1ccc(C=Cc2cc(O)cc(O)c2)cc1` [resveratrol]?
binding of SIRT1 to prelamin A [1]: increased the binding of SIRT1 to prelamin A; stimulating effect on expression of Gadd45α and catalase (Gadd45α and catalase; Zmpste24−/− BMSCs with SIRT1 knocked down): abolished the stimulating effect; expression of Gadd45α and catalase (Gadd45α and catalase; Zmpste24−/− BMSCs, resveratrol 10 μM): increased; β-galactosidase activity (senescence) (Zmpste24−/− MEFs): no obvious difference; bone mineral density (Zmpste24−/− mice): increased bone mineral density; trabecular structural organization (Zmpste24−/− mice): improved the structural organization; trabecular thickness (Zmpste24−/− mice): increased the trabecular thickness
